Like-named read-outs stand apart in the source and are kept apart here.
Columns and labels:
[1] = target: T1, C. breweri S-linalool synthase (Clarkia breweri, UniProt Q96376); assay: S-linalool synthase (LIS) enzyme assay: conversion of [1-3H]-GPP to linalool, hexane/pentane overlay, scintillation counting or radio-GC; format: biochemical; conditions: for whether the divalent metal ion supports the enzymatic reaction (Neither ... nor ... support): at 1 to 10 mM, as the chloride salts; for Specific Activity: by purification step, starting material 10 g excised stigmata; for rate of conversion to linalool relative to the rate for GPP: LPP enantiomers tested as alternate substrates; for Rate (substrate specificity, relative to GPP = 100%): putative substrates tested at 12 μM, averages and SE of four replicate determinations; for effect of detergent on enzyme activity: 0.1% w/v (SDS at similar levels); for efficiency of divalent metal ion as cofactor (in words): Mg2+ substituting for Mn2+
T1 construct: active as monomer; not recombinant
T1 sequence (Q96376 1-870): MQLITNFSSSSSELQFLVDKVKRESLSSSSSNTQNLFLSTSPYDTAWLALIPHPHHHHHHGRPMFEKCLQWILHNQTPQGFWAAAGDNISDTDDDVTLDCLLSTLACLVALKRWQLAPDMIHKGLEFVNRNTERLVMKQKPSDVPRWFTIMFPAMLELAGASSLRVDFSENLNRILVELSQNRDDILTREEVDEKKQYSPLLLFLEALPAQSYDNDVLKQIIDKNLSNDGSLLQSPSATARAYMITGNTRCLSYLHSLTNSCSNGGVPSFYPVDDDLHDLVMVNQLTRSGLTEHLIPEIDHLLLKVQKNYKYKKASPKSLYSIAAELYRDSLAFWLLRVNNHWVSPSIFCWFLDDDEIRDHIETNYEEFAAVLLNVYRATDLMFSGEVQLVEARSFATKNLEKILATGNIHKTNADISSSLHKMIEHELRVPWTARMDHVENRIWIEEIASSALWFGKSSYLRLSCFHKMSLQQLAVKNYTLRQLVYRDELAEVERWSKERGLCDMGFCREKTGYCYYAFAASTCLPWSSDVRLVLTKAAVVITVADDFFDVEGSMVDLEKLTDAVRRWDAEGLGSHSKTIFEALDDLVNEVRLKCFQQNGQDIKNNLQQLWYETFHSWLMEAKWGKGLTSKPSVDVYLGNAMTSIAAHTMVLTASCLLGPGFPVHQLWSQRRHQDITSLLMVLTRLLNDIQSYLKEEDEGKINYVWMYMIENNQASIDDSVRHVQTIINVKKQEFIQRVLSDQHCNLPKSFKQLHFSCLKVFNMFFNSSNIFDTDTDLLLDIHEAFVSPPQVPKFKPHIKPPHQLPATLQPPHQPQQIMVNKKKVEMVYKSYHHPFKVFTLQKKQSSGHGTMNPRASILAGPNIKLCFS
Method: The crude extract (100 ml) was loaded onto a DEAE-cellulose (0.7 cm diam.×6 cm) column (Whatman, DE52) that was pre-equilibrated with a solution containing 50 mM BisTris, pH 6.9, 10% glycerol and 10 mM DTT (buffer A) at a flow rate of about 1 ml/min. Following elution of the unadsorbed material, the column was washed with 50 ml of buffer A followed by an additional 20 ml of buffer A containing 150 mM KCl. LIS activity was then eluted with 20 ml of buffer A containing 250 mM KCl. Fractions with the highest LIS activity (about 60% yield, 10 ml), were either pooled and used immediately, or frozen at -20° C. for up to 1 month with less than 20% loss of activity. The DEAE-cellulose purified fractions were diluted 2-fold with ice-cold buffer A, and loaded on a 1 cm diam.×10cm hydroxyapatite column (Bio-Gel HT, Bio-Rad, Richmond, Calif.) installed in a Pharmacia FPLC apparatus, and pre-equilibrated with 100 ml of buffer A, at a flow rate of 0.5 ml/min. After the enzyme was loaded, the column was washed with 20 ml buffer A and then eluted using a linear gradient (100 ml) from 0 to 200 mM Na-phosphate in buffer A. The fractions containing LIS activity, eluting at about 100 mM Na-phosphate, were pooled (10 to 16 ml) and loaded on a pre-packed Pharmacia Mono-Q HR 5/5 FPLC column equilibrated with buffer A. After a 20-ml wash with buffer A, a steep linear gradient from 0 to 100 mM KCl in buffer A (10 ml) was applied, followed by a more gradual linear gradient from 100 to 400 mM KCl in buffer A (100 ml, 0.25 ml/min). The enzyme consistently eluted at about 220 mM KCl. After dialysis to assay conditions, the enzyme at this level of purity was used for characterization.
After incubation, the assay mixture was briefly mixed again to extract non-polar products into the organic layer. An 800-μl aliquot of the hexane phase was placed into a scintillation vial containing 10 ml of a cocktail of 0.4% (w/v) Omnifluor (Du Pont, Boston Mass.) dissolved in 30% (v/v) ethanol in toluene and counted in a Packard TriCarb 460 CD scintillation spectrometer (efficiency for ^3 H=36%) to determine the total monoterpene synthase activity. To examine in detail the products formed, radio-GC was performed as described (Croteau et al., 1990). For this purpose, the 2 ml pentane extract containing the enzymatically formed ^3 H-labeled products was removed, dried by passage through MgSO4, and internal standards were added (10 μg each of linalool and geraniol; nerol was UD also included in initial experiments). The mixture was then concentrated to ~10 μl under a gentle stream of nitrogen, and an aliquot (2-3 μl) was injected into a Gow-Mac 550P radio gas chromatograph fitted with a 0.125 in ×12 ft stainless steel column loaded with AT-1000 (Gas Chrom Q, Alltech), attached to a Packard 894 gas proportional counter. The initial column temperature was 170° C. and, following a 5 min hold, was programmed at 5° C./min to 220° C., using He at a flow rate of 50 ml/min. Control incubations included the omission of enzyme extract, the use of boiled enzyme extract, the omission of substrate, and the omission of divalent cations. All of these controls produced negligible radioactivity in the hexane phase of the enzyme assay mixtures.
The enantiomeric composition of linalool samples was determined on a fused silica capillary column (0.25 mm internal diam.×30 m) coated with a 0.25 μm film of β-cyclodextrin (J & W Scientific, Cyclodex B), operated at an initial temperature of 75° C. for 15 min followed by a rise of 5° C./min to 200° C. H2 at a head pressure of 13.5 psi was used as carrier gas (Alonso et al., 1992).

[2] = target: T2, LIS (linalool synthase) in crude extracts (Clarkia breweri, UniProt Q96376); assay: LIS activity assay in crude extracts of open C. breweri flowers; format: biochemical
T2 sequence (Q96376 1-870): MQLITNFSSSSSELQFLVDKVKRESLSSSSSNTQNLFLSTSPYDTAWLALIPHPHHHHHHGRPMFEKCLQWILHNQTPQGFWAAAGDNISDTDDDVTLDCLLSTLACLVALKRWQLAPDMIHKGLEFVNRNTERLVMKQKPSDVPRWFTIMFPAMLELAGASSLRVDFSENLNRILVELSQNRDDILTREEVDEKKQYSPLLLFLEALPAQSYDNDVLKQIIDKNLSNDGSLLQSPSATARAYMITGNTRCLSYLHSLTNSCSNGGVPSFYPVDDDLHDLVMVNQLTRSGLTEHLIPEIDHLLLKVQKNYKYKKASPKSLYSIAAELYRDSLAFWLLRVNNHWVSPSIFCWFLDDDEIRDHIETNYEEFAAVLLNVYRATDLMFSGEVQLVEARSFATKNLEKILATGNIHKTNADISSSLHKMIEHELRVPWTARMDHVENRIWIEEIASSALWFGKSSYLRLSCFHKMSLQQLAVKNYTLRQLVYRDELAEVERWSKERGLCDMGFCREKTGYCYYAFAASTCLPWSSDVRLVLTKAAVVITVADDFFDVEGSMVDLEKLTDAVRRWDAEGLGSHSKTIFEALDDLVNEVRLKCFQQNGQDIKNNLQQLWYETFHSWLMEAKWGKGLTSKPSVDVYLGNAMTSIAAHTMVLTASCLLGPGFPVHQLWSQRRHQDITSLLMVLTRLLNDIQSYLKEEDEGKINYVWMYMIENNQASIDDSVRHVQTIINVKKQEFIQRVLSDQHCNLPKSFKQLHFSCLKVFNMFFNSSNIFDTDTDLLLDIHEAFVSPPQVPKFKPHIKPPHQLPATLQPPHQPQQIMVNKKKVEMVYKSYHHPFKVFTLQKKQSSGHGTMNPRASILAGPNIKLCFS
Method: LIS activity was assayed by combining crude extract with ^3 H-GPP (or other substrates) in a buffer containing co-factors. LIS activity was monitored by counting the radioactive linalool extracted from the assay buffer with hexane (GPP is not soluble in hexane) in a scintillation counter. Radio-GC analyses (Croteau et al., 1990) were also undertaken because GPP could be enzymatically hydrolyzed by non-specific phosphatases to produce geraniol, or the tissue might contain other monoterpene synthases, and geraniol or the other monoterpenes that may be produced are also soluble in the organic phase. […] Furthermore, with a special stereo-GC column it was also shown that the product of the reaction is exclusively S-linalool.
A crude protein extract was prepared by macerating flower parts in a microcentrifuge tube in the presence of ice-cold buffer (10 volumes:fresh weight) containing 50 mM BisTris-HCl pH 6.9, 10 mM DTT, 5 mM Na2 S2 O5, 1% (w/v) PVP-40 and 10% (v/v) glycerol. The slurry was centrifuged for 10 min and the supernatant transferred to a new tube. For each time point, extracts of 3 to 5 flowers from 3 different plants were combined. […]
After 1 h, the tube was vortexed again and the amount of the radioactive linalool product, which partitioned into the organic phase, was determined by an LSC of an aliquot. […]

[3] = divalent metal ion required for activity, read-out: Km of divalent metal ion cofactor

Molecule: [Ca+2] [Ca^2+]
- whether the divalent metal ion supports the enzymatic reaction (Neither ... nor ... support) [1]: Neither

Molecule: [Cu+2] [Cu^2+]
- whether the divalent metal ion supports the enzymatic reaction (Neither ... nor ... support) [1]: Neither

Molecule: Hydroxyapatite
- Specific Activity [1]: 44.1 pkat mg^-1
- specific activity of preparation loaded on Superdex 75 ([1]; hydroxyapatite-purified enzyme): 44.1 pkat/mg protein

Molecule: [3H]C=C[C@](C)(CCC=C(C)C)OP(=O)(O)OP(=O)(O)O [3S-[1-^3 H]Linalyl pyrophosphate, reference compound]
- rate of conversion to linalool relative to the rate for GPP [1]: 15%
- Rate (substrate specificity, relative to GPP = 100%) [1]: 15.1 ± 6.0%

Molecule: CCCCCCCCCCCCOS(=O)(=O)[O-].[Na+] [sodium dodecyl sulfate, reference compound]
- effect of detergent on enzyme activity [1]: complete loss of activity

Molecule: CC(C)=CCC/C(C)=C/COP(=O)(O)OP(=O)(O)O [GPP, Geranyl Pyrophosphate, reference compound]
- cofactor / substrate requirement of LIS activity [2]: the only substrate
- Km ([1]; calculated from a Lineweaver-Burk plot, purified enzyme, read-out: Km value for GPP): 0.9 µM
- Rate (substrate specificity, relative to GPP = 100%) [1]: 100 ± 9.6%
- Rate with GPP corresponding to 100% ([1]; substrate at 12 μM, Table 6 footnote b): 22. 2 pkat/mg protein

Molecule: [Mg+2] [Mg^2+]
- efficiency of divalent metal ion as cofactor (in words) [1]: half the rate
- Km [1, 3]: 330 µM

Molecule: [Zn+2] [Zn^2+]
- whether the divalent metal ion supports the enzymatic reaction (Neither ... nor ... support) [1]: Neither

Molecule: Triton-X-100 [reference compound]
- effect of detergent on enzyme activity [1]: no effect on enzyme activity

Molecule: [Co+2] [Co^2+]
- whether the divalent metal ion supports the enzymatic reaction (Neither ... nor ... support) [1]: Neither

Molecule: [Mn+2] [Mn^2+]
- efficiency of divalent metal ion as cofactor (in words) [1]: most efficient
- Km [1, 3]: 45 µM

Molecule: [3H]C=C[C@@](C)(CCC=C(C)C)OP(=O)(O)OP(=O)(O)O [3R-[1-^3 H]Linalyl pyrophosphate, reference compound]
- rate of conversion to linalool relative to the rate for GPP [1]: essentially not converted to linalool
- Rate (substrate specificity, relative to GPP = 100%) [1]: 0.6 ± 0.6%

B1: LIS: S-linalool synthase purified from stigmata of C. breweri (Mono Q purified enzyme used for characterization), SEQ ID NO:2 (protein)
chain: MQLITNFSSSSSELQFLVDKVKRESLSSSSSNTQNLFLSTSPYDTAWLALIPHPHHHHHHGRPMFEKCLQWILHNQTPQGFWAAAGDNISDTDDDVTLDCLLSTLACLVALKRWQLAPDMIHKGLEFVNRNTERLVMKQKPSDVPRWFTIMFPAMLELAGASSLRVDFSENLNRILVELSQNRDDILTREEVDEKKQYSPLLLFLEALPAQSYDNDVLKQIIDKNLSNDGSLLQSPSATARAYMITGNTRCLSYLHSLTNSCSNGGVPSFYPVDDDLHDLVMVNQLTRSGLTEHLIPEIDHLLLKVQKNYKYKKHHQNHCIALLRNYTGFISIFGCFESIITGYHHQFFCWFLDDDEIRDHIETNYEEFAAVLLNVYRATDLMFSGEVQLVEARSFATKNLEKILATGNIHKTNADISSSLHKMIEHELRVPWTARMDHVENRIWIEEIASSALWFGKSSILRLSCFHKMSLQQLAVKNYTLRQLVYRDELAEVERWSKERGLCDMGFCREKTGYCYYAFAASTCLPWSSDVRLVLTKAAVVITVADDFFDVEGSMVDLEKLTDAVRRWDAEGLGSHSKTIFEALDDLVNEVRLKCFQQNGQDIKNNLQQLWYETFHSWLMEAKWGKGLTSKPSVDVYLGNAMTSIAAHTMVLTASCLLGPGFPVHQLWSQRRHQDITSLLMVLTRLLNDIQSYLKEEDEGKINYVWMYMIENNQASIDDSVRHVQTIINVKKQEFIQRVLSDQHCNLPKSFKQLHFSCLKVFNMFFNSSNIFDTDTDLLLDIHEAFVSPPQVPKFKPHIKPPHQLPATLQPPHQPQQIMVNKKKVEMVYKSYHHPFKVFTLQKKQSSGHGTMNPRASILAGPNIKLCFS
- pH optimum ([1]; broad optimum): 7.4
- Specific Activity [1]: 395 pkat mg^-1
- stability to vigorous vortexing with non-polar organic solvents ([1]; hexane and pentane): very stable
- loss of activity in the absence of DTT ([1]; over 2 h at 4° C.): > 95%
- rate at pH 6.4 and 8.4 relative to the optimal ([1]; pH 6.4 and 8.4): ~ 80%
- turnover number ([1]; under saturating conditions): 31.6 s⁻¹

Source: patent US5849526A, “Use of linalool synthase in genetic engineering of scent production” (The Regents of the University of Michigan, priority 1996, dated 1998)
